{"source": "paper PMC12977544", "about": "“Phenotypic high-throughput screening identifies modulators of gut microbial choline metabolism” (mBio, 2026)", "assay": "Quantification of inhibitor 45 in serum and cecal contents of gnotobiotic mice (LC–MS/MS)", "assay_type": "in vivo, Mus musculus C57BL/6", "details": "24 h after inhibitor gavage", "procedure": "Female C57BL/6 germ-free mice (n = 8 per inhibitor group), 10–12 weeks of age in an isolator, were colonized with 200 µL of mix containing the five bacterial species mentioned above at ~10^8 bacterial cells/mL. Mice were fed a 1% choline diet (Envigo) ad libitum. Two weeks after colonization, mice were administrated by gavage with 3 mg/kg of the inhibitor or vehicle between 6 and 8 a.m. once a day for three consecutive days. After a 10-day washout period, mice were orally administered 30 mg/kg of the inhibitor once a day (same time as above) for three consecutive days, and blood was collected 24 h after the last gavage.\nA fecal sample was collected before the first gavage. At sacrifice, tissues collected were blood, cecal contents, a fecal pellet, proximal colon, distal small intestine, liver, and kidney. Mice were anesthetized with isoflurane and underwent cardiac puncture for a terminal blood draw, followed by cervical dislocation. Tissues were snap-frozen in liquid nitrogen. Blood was spun down at 8,000 × g for 8 min at room temperature; the resulting serum layer was removed and snap-frozen. All snap-frozen tissues were stored at −80°C until needed.\nA standard curve of inhibitor 45 spiked in commercial mouse serum (Sigma) was prepared. To 50 µL of serum sample, 450 µL of a mixture 75% acetonitrile, 25% methanol, 1% formic acid was added to precipitate proteins. […]", "data": [{"compound": "Cc1ccc(-c2cc(C(=O)NCCCCCN3CCCCCC3)c(C)[nH]2)cc1C", "note": "[Compound 45]", "values": [{"measurement": "Concentration in wet cecal mass", "result": 463, "unit": "pmol/µg"}, {"measurement": "concentration at 24 h", "setting": "female, C57BL/6, mouse, serum, oral, 30 mg/kg, limit of detection 1 µM", "result": "< 1000", "unit": "nM"}]}]}
